Experimental data taken from patent US20230085307A1, “PYRIDAZINONE COMPOUND AND HERBICIDE” (NISSAN CHEMICAL CORPORATION, priority 2019, published 2023).

How the values were obtained:
[1] = test system: Italian ryegrass; test: Test Example 4: herbicidal effect by soil treatment (Table 19, symbol K); format: in vivo, Italian ryegrass (Lolium multiflorum); conditions: amount of applied herbicide 320 g/ha
Procedure, shortened: (§1)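 Three weeks of greenhouse growth at 25° C. to 30° C. followed a uniform surface spray of water-diluted emulsion at a predetermined herbicide amount. Seeds had been sown beforehand under about 1.5 cm of sterilized diluvial soil. Grading followed criteria set out in an earlier test.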

[2] = test system: barnyard grass; test: Test Example 4: herbicidal effect by soil treatment (Table 19, symbol H); format: in vivo, barnyard grass (Echinochloa crus-galli); conditions: amount of applied herbicide 320 g/ha
Procedure, shortened: as §1

[3] = test system: wild oat; test: Test Example 4: herbicidal effect by soil treatment (Table 19, symbol I); format: in vivo, wild oat (Avena fatua); conditions: amount of applied herbicide 320 g/ha
Procedure, shortened: as §1

[4] = test system: southern crabgrass; test: Test Example 4: herbicidal effect by soil treatment (Table 19, symbol F); format: in vivo, southern crabgrass (Digitaria ciliaris); conditions: amount of applied herbicide 320 g/ha
Procedure, shortened: as §1

[5] = test system: blackgrass; test: Test Example 4: herbicidal effect by soil treatment (Table 19, symbol J); format: in vivo, blackgrass (Alopecurus myosuroides); conditions: amount of applied herbicide 320 g/ha
Procedure, shortened: as §1

[6] = test system: Japanese bulrush; test: Test Example 2: herbicidal activity, application during weed generation under submerged conditions (Table 17, symbol B); format: in vivo, Japanese bulrush (Schoenoplectus juncoides); conditions: AAH 320 g/ha; application during weed generation, submerged conditions
Procedure, shortened: (§2)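 In this pot test, flooded alluvial soil (water depth 4 cm) holds all three species sown as a mixture. Once seedlings have one to two leaves, the compound's emulsion, thinned with water to the intended dose, is poured on the water; grading follows after three weeks on the earlier criteria.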

[7] = test system: barnyard grass; test: Test Example 5: herbicidal effect by foliage application, plastic box (Table 20, symbol H); format: in vivo, barnyard grass (Echinochloa crus-galli); conditions: foliage application after 14-day growth, evaluated three weeks after application; for herbicidal effect on H: barnyard grass (evaluation grade 0-5): 320 g/ha
Procedure, shortened: (§3)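 Plants sown in sterilized diluvial soil and grown 14 days in a greenhouse at 25° C to 30° C, then sprayed on the foliage with the compound's emulsion diluted in water to a predetermined herbicide amount. Injury to weeds and crops scored three weeks after application on a visual rating scale.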

[8] = test system: redroot pigweed; test: Test Example 5: herbicidal effect by foliage application, plastic box (Table 20, symbol N); format: in vivo, redroot pigweed (Amaranthus retroflexus); conditions: foliage application after 14-day growth, evaluated three weeks after application; for herbicidal effect on N: redroot pigweed (evaluation grade 0-5): 320 g/ha
Procedure, shortened: as §3

[9] = test system: late watergrass; test: Test Example 1: herbicidal activity, application before weed generation under submerged conditions (Table 16, symbol A); format: in vivo, late watergrass (Echinochloa oryzicola); conditions: amount of applied herbicide 320 g/ha
Procedure, shortened: (§4)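 Emulsion formulation, water-diluted to set dose, was put onto the flooded surface (4 cm depth, alluvial soil) the same day weeds were sown and 2.5-leaf rice transplanted. After 3 weeks at 25-30 °C under glass, each species was rated 0 (≤5% kill) to 5 (≥90% kill).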

[10] = test system: green foxtail; test: Test Example 5: herbicidal effect by foliage application, plastic box (Table 20, symbol G); format: in vivo, green foxtail (Setaria viridis); conditions: foliage application after 14-day growth, evaluated three weeks after application; for herbicidal effect on G: green foxtail (evaluation grade 0-5): 320 g/ha
Procedure, shortened: as §3

[11] = test system: chickweed; test: Test Example 5: herbicidal effect by foliage application, plastic box (Table 20, symbol P); format: in vivo, common chickweed (Stellaria media); conditions: foliage application after 14-day growth, evaluated three weeks after application; for herbicidal effect on P: chickweed (evaluation grade 0-5): 320 g/ha
Procedure, shortened: as §3

[12] = test system: redroot pigweed; test: Test Example 4: herbicidal effect by soil treatment (Table 19, symbol N); format: in vivo, redroot pigweed (Amaranthus retroflexus); conditions: amount of applied herbicide 320 g/ha
Procedure, shortened: as §1

[13] = test system: Japanese bulrush; test: Test Example 1: herbicidal activity, application before weed generation under submerged conditions (Table 16, symbol B); format: in vivo, Japanese bulrush (Schoenoplectus juncoides); conditions: amount of applied herbicide 320 g/ha
Procedure, shortened: as §4

[14] = test system: blackgrass; test: Test Example 5: herbicidal effect by foliage application, plastic box (Table 20, symbol J); format: in vivo, blackgrass (Alopecurus myosuroides); conditions: foliage application after 14-day growth, evaluated three weeks after application; for herbicidal effect on J: blackgrass (evaluation grade 0-5): 320 g/ha
Procedure, shortened: as §3

[15] = test system: oval-leafed pondweed; test: Test Example 2: herbicidal activity, application during weed generation under submerged conditions (Table 17, symbol C); format: in vivo, oval-leafed pondweed (Monochoria vaginalis); conditions: AAH 320 g/ha; application during weed generation, submerged conditions
Procedure, shortened: as §2

[16] = test system: wild oat; test: Test Example 5: herbicidal effect by foliage application, plastic box (Table 20, symbol I); format: in vivo, wild oat (Avena fatua); conditions: foliage application after 14-day growth, evaluated three weeks after application; for herbicidal effect on I: wild oat (evaluation grade 0-5): 320 g/ha
Procedure, shortened: as §3

[17] = amount of applied herbicide 320 g/ha

Compound: CCCC(=O)Oc1c(C)nn(C)c(=O)c1-c1c(-c2ccc(C#N)cc2)sc2c(Cl)cccc12 [4-032]
- Herbicidal effect by soil treatment, K: Italian ryegrass [1]: 0 (Herbicidal rate of 5% or less (almost no effect))
- Herbicidal effect by soil treatment, H: barnyard grass [2]: 0 (Herbicidal rate of 5% or less (almost no effect))
- Herbicidal effect by soil treatment, I: wild oat [3]: 0 (Herbicidal rate of 5% or less (almost no effect))
- Herbicidal effect by soil treatment, F: southern crabgrass [4]: 0 (Herbicidal rate of 5% or less (almost no effect))
- Herbicidal effect by soil treatment, J: blackgrass [5]: 0 (Herbicidal rate of 5% or less (almost no effect))
- herbicidal effect rating, B: Japanese bulrush [6]: 3 (Herbicidal rate of 40% or more and less than 70%)
- herbicidal effect on H: barnyard grass (evaluation grade 0-5) [7]: 0 (Herbicidal rate of 5% or less (almost no effect))
- herbicidal effect on N: redroot pigweed (evaluation grade 0-5) [8]: 5 (Herbicidal rate of 90% or more (almost completely withered))
- Herbicidal effect, A: late watergrass [9]: 0 (Herbicidal rate of 5% or less (almost no effect))
- herbicidal effect on G: green foxtail (evaluation grade 0-5) [10]: 0 (Herbicidal rate of 5% or less (almost no effect))
- herbicidal effect on P: chickweed (evaluation grade 0-5) [11]: 5 (Herbicidal rate of 90% or more (almost completely withered))
- Herbicidal effect by soil treatment, N: redroot pigweed [12]: 3 (Herbicidal rate of 40% or more and less than 70%)
- Herbicidal effect, B: Japanese bulrush [13]: 2 (Herbicidal rate of 20% or more and less than 40%)
- herbicidal effect on J: blackgrass (evaluation grade 0-5) [14]: 0 (Herbicidal rate of 5% or less (almost no effect))
- herbicidal effect rating, C: oval-leafed pondweed [15]: 0 (Herbicidal rate of 5% or less (almost no effect))
- herbicidal effect on I: wild oat (evaluation grade 0-5) [16]: 0 (Herbicidal rate of 5% or less (almost no effect))

Compound: CCCC(=O)Oc1c(C)nn(C)c(=O)c1-c1c(-c2ccc(F)cc2OCC)sc2c(Cl)cccc12 [4-036]
- Herbicidal effect by soil treatment, K: Italian ryegrass [1]: 0 (Herbicidal rate of 5% or less (almost no effect))
- Herbicidal effect by soil treatment, H: barnyard grass [2]: 3 (Herbicidal rate of 40% or more and less than 70%)
- Herbicidal effect by soil treatment, I: wild oat [3]: 0 (Herbicidal rate of 5% or less (almost no effect))
- Herbicidal effect by soil treatment, F: southern crabgrass [4]: 4 (Herbicidal rate of 70% or more and less than 90%)
- Herbicidal effect by soil treatment, J: blackgrass [5]: 0 (Herbicidal rate of 5% or less (almost no effect))
- herbicidal effect rating, B: Japanese bulrush [6]: 0 (Herbicidal rate of 5% or less (almost no effect))
- herbicidal effect on H: barnyard grass (evaluation grade 0-5) [7]: 5 (Herbicidal rate of 90% or more (almost completely withered))
- herbicidal effect on N: redroot pigweed (evaluation grade 0-5) [8]: 5 (Herbicidal rate of 90% or more (almost completely withered))
- Herbicidal effect, A: late watergrass [9]: 4 (Herbicidal rate of 70% or more and less than 90%)
- herbicidal effect on G: green foxtail (evaluation grade 0-5) [10]: 5 (Herbicidal rate of 90% or more (almost completely withered))
- herbicidal effect on P: chickweed (evaluation grade 0-5) [11]: 5 (Herbicidal rate of 90% or more (almost completely withered))
- Herbicidal effect by soil treatment, N: redroot pigweed [12]: 4 (Herbicidal rate of 70% or more and less than 90%)
- Herbicidal effect, B: Japanese bulrush [13]: 3 (Herbicidal rate of 40% or more and less than 70%)
- herbicidal effect on J: blackgrass (evaluation grade 0-5) [14]: 3 (Herbicidal rate of 40% or more and less than 70%)
- herbicidal effect rating, C: oval-leafed pondweed [15]: 0 (Herbicidal rate of 5% or less (almost no effect))
- herbicidal effect on I: wild oat (evaluation grade 0-5) [16]: 0 (Herbicidal rate of 5% or less (almost no effect))

Compound: CCCC(=O)Oc1c(C)nn(C)c(=O)c1-c1c(-c2ccc(C(F)(F)F)cc2)sc2c(F)cccc12 [4-045]
- Herbicidal effect by soil treatment, K: Italian ryegrass [1]: 0 (Herbicidal rate of 5% or less (almost no effect))
- Herbicidal effect by soil treatment, H: barnyard grass [2]: 0 (Herbicidal rate of 5% or less (almost no effect))
- Herbicidal effect by soil treatment, I: wild oat [3]: 0 (Herbicidal rate of 5% or less (almost no effect))
- Herbicidal effect by soil treatment, F: southern crabgrass [4]: 0 (Herbicidal rate of 5% or less (almost no effect))
- Herbicidal effect by soil treatment, J: blackgrass [5]: 0 (Herbicidal rate of 5% or less (almost no effect))
- herbicidal effect rating, B: Japanese bulrush [6]: 0 (Herbicidal rate of 5% or less (almost no effect))
- herbicidal effect on H: barnyard grass (evaluation grade 0-5) [7]: 2 (Herbicidal rate of 20% or more and less than 40%)
- herbicidal effect on N: redroot pigweed (evaluation grade 0-5) [8]: 4 (Herbicidal rate of 70% or more and less than 90%)
- Herbicidal effect, A: late watergrass [9]: 4 (Herbicidal rate of 70% or more and less than 90%)
- herbicidal effect on G: green foxtail (evaluation grade 0-5) [10]: 0 (Herbicidal rate of 5% or less (almost no effect))
- herbicidal effect on P: chickweed (evaluation grade 0-5) [11]: 5 (Herbicidal rate of 90% or more (almost completely withered))
- Herbicidal effect by soil treatment, N: redroot pigweed [12]: 4 (Herbicidal rate of 70% or more and less than 90%)
- Herbicidal effect, B: Japanese bulrush [13]: 2 (Herbicidal rate of 20% or more and less than 40%)
- herbicidal effect on J: blackgrass (evaluation grade 0-5) [14]: 0 (Herbicidal rate of 5% or less (almost no effect))
- herbicidal effect rating, C: oval-leafed pondweed [15]: 0 (Herbicidal rate of 5% or less (almost no effect))
- herbicidal effect on I: wild oat (evaluation grade 0-5) [16]: 0 (Herbicidal rate of 5% or less (almost no effect))

Compound: CCCC(=O)Oc1c(C)nn(C)c(=O)c1-c1c(-c2ccc(C#N)cc2)sc2cc(F)c(F)cc12 [5-026]
- K: Italian ryegrass, herbicidal effect grade [1]: 0 (Herbicidal rate of 5% or less (almost no effect))
- H: barnyard grass, herbicidal effect grade [2]: 0 (Herbicidal rate of 5% or less (almost no effect))
- I: wild oat, herbicidal effect grade [3]: 0 (Herbicidal rate of 5% or less (almost no effect))
- F: southern crabgrass, herbicidal effect grade [4]: 0 (Herbicidal rate of 5% or less (almost no effect))
- J: blackgrass, herbicidal effect grade [5]: 0 (Herbicidal rate of 5% or less (almost no effect))
- herbicidal effect rating, B: Japanese bulrush [6]: 0 (Herbicidal rate of 5% or less (almost no effect))
- Herbicidal effect by foliage application, H: barnyard grass [7, 17]: 0 (Herbicidal rate of 5% or less (almost no effect))
- Herbicidal effect by foliage application, N: redroot pigweed [8, 17]: 2 (Herbicidal rate of 20% or more and less than 40%)
- Herbicidal effect, A: late watergrass [9]: 3 (Herbicidal rate of 40% or more and less than 70%)
- Herbicidal effect by foliage application, G: green foxtail [10, 17]: 0 (Herbicidal rate of 5% or less (almost no effect))
- Herbicidal effect by foliage application, P: chickweed [11, 17]: 5 (Herbicidal rate of 90% or more (almost completely withered))
- N: redroot pigweed, herbicidal effect grade [12]: 4 (Herbicidal rate of 70% or more and less than 90%)
- Herbicidal effect, B: Japanese bulrush [13]: 0 (Herbicidal rate of 5% or less (almost no effect))
- Herbicidal effect by foliage application, J: blackgrass [14, 17]: 0 (Herbicidal rate of 5% or less (almost no effect))
- herbicidal effect rating, C: oval-leafed pondweed [15]: 0 (Herbicidal rate of 5% or less (almost no effect))
- Herbicidal effect by foliage application, I: wild oat [16, 17]: 1 (Herbicidal rate of 5% or more and less than 20%)
